Experimental data from publication PMC10747034 (Tropical Medicine and Infectious Disease, 2023).
Values joined by “and” are separate entries in the source; they are usually repeats but may differ in a detail not shown here. Equal entries are not always repeated. “Also recorded” adds a separate entry of the source. Where two headings read alike, the source gives them in different places.

Legend:
NHDF cells = assay: Cytotoxicity assay (MTS, 7 days); type: cell-based, Human; conditions: for CC50: MTS, read-out: Cytotoxicity against NHDF (7 Days) CC50
Experimental: (§1) For that, 96-well tissue plates containing NHDF cells were treated with different concentrations of compounds up to 10 µM for seven days. Control cells were incubated with 0.5% DMSO. At the end of the treatment, cell viability was then analyzed through the colorimetric method of MTS (Promega, Madison, WI, USA). […] Data were analyzed using GraphPad Prim 8.0 software. IC50 and CC50 calculations were performed by fitting the values of proliferation/viability in percentage to a non-linear curve followed by dose–response inhibition analysis through log(inhibitor) vs. normalized response.

T. gondii tachyzoites = assay: Ultrastructural analysis through transmission electron microscopy; type: cell-based, Toxoplasma gondii; conditions: 48 h
Experimental: T-25 cm^2 flasks for cell culture with confluent monolayers of NHDF were infected with freshly egressed tachyzoite in a ratio of 10:1 parasite per cell for 2 h of interaction. The flasks were washed and fresh RPMI was added for another two hours. After this, the compounds were added and infected cells were treated for 48 h. The sample fixation and processing for microscopy were performed as previously described.

[1] = test system: Toxoplasma gondii tachyzoites of RH strain; assay: Forty-eight-hour antiproliferative assay; type: cell-based; conditions: 48 h; for inhibition at 1 µM / inhibition at 0.25 µM: read-out: Inhibition of parasite proliferation
Experimental: NDHF cell monolayers were plated in a 24-well tissue plate containing coverslips, and after confluency was reached, cells were infected with a ratio of 5:1 parasite/host cells with freshly egressed RH strain tachyzoites for two hours. Then, cells were washed twice with phosphate-buffered saline, pH 7.4 (PBS), to remove non-invaded parasites and incubated with a complete medium for two hours more. After this time, infected cells were treated for 48 h with different concentrations of selected compounds, based on the IC50 obtained through plaque assay. At the end of the experiment, the cells were washed with PBS, stained with Bouin for 10 min, washed with 70% alcohol, and stained with solutions 2 and 3 of the Fast Panoptic kit for 60 and 10 s, respectively. Two hundred infected cells were quantified per slide using the 100× objective of a Leica DM500 optical microscope, stratifying the number of infected and non-infected cells and the amount of tachyzoite in each infected cell. The proliferation index is the ratio of the product of the total amount of tachyzoites and the percentage of infected cells by the total number of cells.

[2] = test system: Toxoplasma gondii tachyzoites of RH strain; assay: Plaque assay (7 days) in NHDF monolayers infected with T. gondii; type: cell-based; conditions: 7 days of treatment, two independent experiments
Experimental: After NHDF reached confluency, each well was replaced with fresh medium containing one compound at a concentration of 1 µM, and then infected with 1000 newly egressed tachyzoites from RH strain [29]. Screening at 1 μM is recommended by MMV. As a control, infected cells were incubated with complete medium and 0.01% DMSO [29]. The plates were then kept in an incubator at 37 °C in a humid atmosphere with 5% CO2 for seven days. After this time, cultures were fixed with 70% ethanol and stained with crystal violet to observe the plates.
For that, 12-well plates containing a monolayer of NHDF were infected with 600 tachyzoites of the RH strain of T. gondii and treated with different concentrations for seven days. IC50s of compounds were calculated using GraphPad Prism 8.0 software.
Data were analyzed using GraphPad Prim 8.0 software. IC50 and CC50 calculations were performed by fitting the values of proliferation/viability in percentage to a non-linear curve followed by dose–response inhibition analysis through log(inhibitor) vs. normalized response.

[3] = Cytotoxicity assay (MTS, 7 days); type: cell-based, Human; conditions: human, NHDF cells, MTS, read-out: Cytotoxicity against NHDF (7 Days) CC50
Experimental: as §1

[4] = test system: Toxoplasma gondii tachyzoites of RH strain; assay: Post-treatment recovery (washout) assay; type: cell-based; conditions: 3 days of treatment, 7 days recovery without drug; 0.001 to 1 µM tested
Experimental: NHDF monolayers in 12-well plates were infected with 5000 newly egressed tachyzoites from RH strain and then treated for 3 days with drug concentrations of 0.001 to 1 µM. After treatment, the medium with drugs was removed, and the cells were washed twice and incubated with a fresh medium without drugs for an additional 7 days to allow the remaining parasites (if still viable after treatment) to grow. The plates were then kept in an incubator at 37 °C in a humid atmosphere with 5% CO2 throughout the treatment.

Balamuthia Mandrillaris = test system: Balamuthia Mandrillaris; design: method as in PMID 32560115; conditions: read-out: IC50 against Balamuthia Mandrillaris; cited from earlier work
[5] = test system: T. gondii tachyzoites (apicoplast); assay: Immunofluorescence assay of apicoplast loss (anti-CPN60); type: cell-based, Toxoplasma gondii; conditions: 1 µM, 24 h
Experimental: Anti-CPN60 (kindly provided by Dr. Boris […], University of Georgia, USA) was used to label the apicoplast luminal protein CPN60 at a dilution of 1:2000. DAPI (5 μg/mL; Sigma-Aldrich) was used to label the DNA. After labeling, the coverslips were mounted onto slides using Prolong gold (Life Technologies, Eugene, OR, USA), and samples were examined on an Invitrogen EVOS fluorescence microscope.

T. gondii Me49 strain = conditions: read-out: IC50 against T. gondii Me49 strain; cited from earlier work
T. gondii RH strain = conditions: read-out: IC50 against T. gondii RH strain; cited from earlier work
[6] = concentrations up to 10 µM, two independent experiments
[7] = ND = 100% viability up to 10 µM

Row | SMILES | CC50 (NHDF cells; [6]) [µM] | IC50 [2] | CC50 at 7 days [3, 6] [µM] | SI (Selectivity Index, CC50 NHDF cells/IC50 T. gondii) (NHDF cells) | IC50 ([2]; Toxoplasma gondii, NHDF, 168 h) [nM] | also measured
1 | Oc1cccc(C(Nc2nccs2)c2ccc3cccnc3c2O)c1 (stereo not shown) [MMV642550] | 6.73 | 320 ± 17 nM | – | – | – | Ultrastructural alterations on tachyzoites (TEM) (T. gondii tachyzoites; 1 µM): affected the Golgi complex (GC) (Figure 4E) and induced extensive vacuolization inside the parasite body; Inhibition of T. gondii proliferation ([1]; 0.5 µM): around 75%
2 | NC(=S)N/N=C/c1ncccc1N [Triapine] | – | – | 2.79 | 4 | 717.7 ± 0.1 | inhibition at 1 µM ([1]; Toxoplasma gondii, 1 µM): > 60%
3 | Nc1nc(Nc2ccc3nc(-c4ccc(F)cc4)cc(N)c3c2)cc(-c2ccccc2)n1 [MMV1593541] | 2.54 | – | – | – | – | Ultrastructural alterations on tachyzoites (TEM) (T. gondii tachyzoites; 0.5 µM): induced the formation of extensive cytoplasm vacuolization; Inhibition of T. gondii proliferation ([1]; 125 nM): more than 50%; Inhibition of parasite proliferation ([1]; 0.25 µM): around 60%
4 | CCc1nc(N)nc(N)c1C#CC(C)c1cc(OC)cc(-c2ccncc2)c1 (stereo not shown) [MMV1580844] | 11.2 | – | – | – | – | Concentrations at which monolayer lysis and plaque areas were seen after washout [4]: 0.001 to 0.01 µM; Ultrastructural alterations on tachyzoites (TEM) (T. gondii tachyzoites; 3 nM): caused parasite lysis; also recorded: disrupted the parasite division process; Inhibition of tachyzoite proliferation ([1]; 7 nM): more than 90%; Inhibition of T. gondii proliferation ([1]; concentrations close to 2 nM): approximately 50%
5 | COc1cc(NCc2ccc3nc(N)nc(N)c3c2C)cc(OC)c1OC [Trimetrexate] | – | – | 11.9 | 3046 | – | Concentrations at which monolayer lysis and plaque areas were seen after washout [4]: 0.001 to 0.1 µM; inhibition at 0.015 µM ([1]; Toxoplasma gondii, 15 nM, read-out: Inhibition of tachyzoite proliferation): > 90%; Inhibition of T. gondii proliferation ([1]; concentrations close to 2 nM): approximately 50%
6 | CC1=C(/C=C/C(C)=C/C=C/C(C)=C/C(=O)Nc2ccc(O)cc2)C(C)(C)CCC1 [Fenretinide] | – | – | 26.7 | 29 | 918 ± 29.1 | –
7 | Oc1c(C(Nc2nc3ccccc3s2)c2ccc(OC(F)F)cc2)ccc2cccnc12 (stereo not shown) [MMV019724] | 2.5 | ≤ 200 nM and 109 nM | – | – | – | Ultrastructural alterations on tachyzoites (TEM) (T. gondii tachyzoites; 0.25 µM): affected the parasite cell division process; also recorded: induced a lytic effect in the parasite; Inhibition of parasite proliferation ([1]; 0.25 µM): more than 80%; Inhibition of parasite proliferation ([1]; 1 µM): 99%
8 | COc1cc(NS(=O)(=O)c2ccc(C)cc2)c2ncccc2c1 [DNDI1417411] | 14.5 | 485 ± 43.8 nM | – | – | – | Inhibition of parasite proliferation ([1]; 1 µM): more than 60%
9 | CN1CCN(Cc2ccc(-c3cnc4[nH]cc(-c5ccc6[nH]ccc6c5)c4c3)cc2)CC1 [URMC-099-C] | – | – | – | – | – | CC50 at 7 days [3, 7]: > 10 µM; Ultrastructural alterations on tachyzoites (TEM) (T. gondii tachyzoites; 1 µM): induced an extensive vacuolization (asterisks) in T. gondii and myelin-like bodies; inhibition at 1 µM ([1]; Toxoplasma gondii, 1 µM): > 60%; IC50 (Balamuthia Mandrillaris): 5.35 µM
10 | CCCCC(CC)CNC(=N)NC(=N)NCCCCCCNC(=N)NC(=N)NCC(CC)CCCC (stereo not shown) [Alexidine] | – | – | 1.63 | 6 | 272 ± 38.4 | inhibition at 0.25 µM ([1]; Toxoplasma gondii, 0.25 µM): ~60%
11 | Cc1nc2ccc(Oc3ccccc3)cc2c2c1CCN2CCc1ccccc1 [MMV1634399] | 24.1 | 920.3 ± 0.1 nM | – | – | – | –
12 | Cc1cc(C2CCCCC2)n(O)c(=O)c1 [Ciclopirox] | – | – | 4 | 8 | 497 ± 18.1 | –
13 | CCc1nc(N)nc(N)c1-c1ccc(Cl)cc1 [PYR, pyrimethamine] | – | – | – | – | – | Concentration that abolished parasite proliferation recovery (no plaques) [4]: > 1 µM; Concentrations at which monolayer lysis and plaque areas were seen after washout [4]: all concentrations
14 | C=C[C@]1(C)C[C@@H](OC(=O)CS[C@@H]2C[C@H]3CC[C@@H](C2)N3C)[C@]2(C)[C@H](C)CC[C@]3(CCC(=O)[C@H]32)[C@@H](C)[C@@H]1O [Retapamulin] | – | < 100 nM | 9.98 | 270 | – | Frequency of vacuoles (4 or 8 parasites) with at least one parasite presenting apicoplast loss [5]: higher than 30%; Inhibition of parasite proliferation ([1]; 1 µM): more than 50%; inhibition at 1 µM ([1]; Toxoplasma gondii, 1 µM): > 60%
15 | CC[C@H]1OC(=O)[C@H](C)[C@@H](O[C@H]2C[C@@](C)(OC)[C@@H](O)[C@H](C)O2)[C@H](C)[C@@H](O[C@@H]2O[C@H](C)C[C@H](N(C)C)[C@H]2O)[C@](C)(O)C[C@@H](C)C(=O)[C@H](C)[C@@H](O)[C@]1(C)O [Erythromycin] | – | 131 ± 15.8 nM | 11.9 | 91 | ≤ 200 | –
16 | O=C(/C=C\n1cnc(-c2cc(C(F)(F)F)cc(C(F)(F)F)c2)n1)NNc1ccccn1 [Verdinexor] | – | 70 ± 24.4 nM | 2.86 | – | – | Ultrastructural alterations on tachyzoites (TEM) (T. gondii tachyzoites; 0.25 µM): caused a drastic effect on the division of the parasite; also recorded: caused extensive vacuolization; also recorded: induced mitochondrial alterations; inhibition at 0.25 µM ([1]; Toxoplasma gondii, 0.25 µM): > 80%; inhibition at 1 µM ([1]; Toxoplasma gondii, 1 µM): 99%; IC50 ([2]; listed as verdinexor): ≤ 200 nM
17 | COc1cc(C)c2c(Oc3cccc(C(F)(F)F)c3)c(OC)cc(NC(C)CCCN)c2n1 (stereo not shown) [Tafenoquine] | – | – | 16.3 | 18 | 896.9 ± 0.1 | –
18 | Fc1ccc(-c2nc(-c3c[nH]c4ccc(Br)cc34)[nH]c2-c2ccc(F)cc2)cc1 [MMV1593537] | 5.66 | 940 ± 38.6 nM | – | – | – | –
19 | COc1ccc2sc3c(c2c1)NC(C)CNC3=O (stereo not shown) [MMV1782115] | 9.43 | ≤ 200 nM and 161 nM | – | – | – | Inhibition of parasite proliferation ([1]; 1 µM): more than 60%
20 | CCC[C@@H]1C[C@@H](C(=O)N[C@@H]([C@H]2O[C@H](SC)[C@H](O)[C@@H](O)[C@H]2O)[C@H](C)Cl)N(C)C1 [Clindamycin] | – | – | – | – | – | Frequency of vacuoles (4 or 8 parasites) with at least one parasite presenting apicoplast loss [5]: higher than 30%
21 | O=S(=O)(Nc1cccc2cccnc12)c1ccccc1 [MMV1578890] | 10.3 | 1100 ± 0.1 nM | – | – | – | –
22 | Cn1cc(NC(=O)c2cc(NC(=O)c3ccc(/C=C/c4cnc5ccccc5c4)cc3)cn2C)cc1C(=O)NCCN1CCOCC1 [MMV1634391] | – | – | – | – | – | CC50 (NHDF cells; [7]): > 10 µM; Frequency of vacuoles (4 or 8 parasites) with at least one parasite presenting apicoplast loss [5]: higher than 30%
23 | OCCC#Cc1nc(-c2ccc(F)cc2)c(-c2ccncc2)n1CCCc1ccccc1 [RWJ-67657] | – | – | 12.6 | 31 | 412 ± 21.7 | Ultrastructural alterations on tachyzoites (TEM) (T. gondii tachyzoites; 1 µM): induced an extensive vacuolization (asterisks) in T. gondii and myelin-like bodies; IC50 (T. gondii Me49 strain): 0.8 µM; Inhibition of parasite proliferation ([1]; 1 µM): 59.5%; inhibition at 1 µM ([1]; Toxoplasma gondii, 1 µM): > 60%; IC50 (T. gondii RH strain): 5 µM
